According to article PMC4754685 (Scientific Reports, 2016):

Target: T1, Mlp37p (periplasmic fragment of Mlp37) (Vibrio cholerae, UniProt A0A0H3AES3)
T1 construct: gene VC0395_0316
Test: biochemical

T1 sequence (A0A0H3AES3 58-303 limits assumed): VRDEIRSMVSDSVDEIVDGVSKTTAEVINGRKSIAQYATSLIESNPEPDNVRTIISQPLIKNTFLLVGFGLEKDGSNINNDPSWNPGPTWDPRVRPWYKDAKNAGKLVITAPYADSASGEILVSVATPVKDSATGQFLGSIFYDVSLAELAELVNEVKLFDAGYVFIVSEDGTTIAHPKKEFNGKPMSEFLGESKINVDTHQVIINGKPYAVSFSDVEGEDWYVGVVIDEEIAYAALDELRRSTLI

Compound | Kd [µM]
C[C@H](N)C(=O)O [L-alanine] | 2.7
N[C@@H](CO)C(=O)O [L-serine] | 3.6
NCCS(=O)(=O)O [taurine, 2-aminoethanesulfonic acid] | 3.2
N=C(N)NCCC[C@H](N)C(=O)O [L-arginine] | 5.6
